# Measurements reported in patent US9157062B2, “Compositions and methods for promoting the generation of PDX1+ pancreatic cells” (President and Fellows of Harvard College, priority 2008, dated 2015).
# What was measured:
# [1] = test system: HUES8-derived treated cells grafted under the kidney capsule; experiment: Kidney capsule implantation of treated cells in CD1-nude mice; format: in vivo, mouse
# Protocol: After 4 days treatment with 300 nM ILV or 300 nM ILV+ 50 ng/ml FGF10, the cells were washed with DPBS for 3 times and treated with 1 mg/ml dispase for 5 min at 37° C. Then, the cells were lifted with the help of cell scraper, collected by centrifugation and resuspended in 50 μl DMEM supplemented 1×B27. About 40 μl (˜2×10^6 cells) of cell clumps were implanted into the left kidney of xylazine anesthetized CD1-nude mice. Two mice were prepared for each sample. Twelve weeks later, the left kidneys were dissected and fixed in 4% paraformaldehyde for 4 hours at 4° C. and processed by standard techniques to generate 15 micrometer cryosections for antibody staining. The antibodies were used as the same condition as immunocytochemistry. Fluorescent images were acquired on an inverted Zeiss LSM 510 confocal microscope.
# To further assess the developmental competence of chemically-treated cells, the cells were transplanted under the kidney capsule of nude mice, an assay used by others to observe pancreatic differentiation in vivo (Korsgren et al., 1991; Movassat et al., 2002). […] Additionally, all insulin^+ cells express c-peptide. In contrast, no insulin^+ cells were detected in the mice injected with DMSO-treated population. […]
# [2] = test system: HUES9-derived population (Pdx1+ cells); experiment: High throughput screen for compounds increasing Pdx1+ cells; format: cell-based, human
# Protocol: To generate a starting population, HUES cells were cultured on MEF feeder cells until 80-90% confluent, then treated with 25 ng/ml Wnt3a (R&D systems)+100 ng/ml Activin A (R&D systems) in advanced RPMI (A-RPMI, Invitrogen) supplemented with 1×L-Glu and 1×PS for 1 day, and then 100 ng/ml Activin A in A-RPMI supplemented with 1×L-Glu, 1×PS and 0.2% FBS (Invitrogen). Two days later, the media was changed to 50 ng/ml FGF10 (R&D systems)+0.25 μM KAAD-CYC (Calbiochem) in A-RPMI supplemented with 1×L-Glu, 1×PS and 2% FBS and maintained for additional 2 days. Cells were then transferred to 50 ng/ml FGF10+0.25 μM KAAD-CYC+2 μM RA (Sigma) in DMEM supplemented with 1×L-Glu, 1×PS, 1×B27 (Invitrogen) and cultured for an additional 4 days. ILV was obtained from Axxora, KAAD-CYC, TPB, PMA, BISI, Gö 6983, U0126 and PD98059 were obtained from Calbiochem and RA were obtained from Sigma.
# For a high throughput screen, the starting material was hESCs (HUES9 cells) that were induced to pancreatic lineage using a slightly modified version of previously published protocols (D'Amour et al., 2006; Jiang et al., 2007), as described in Example 1. After 9 days of stepwise differentiation, a heterogeneous population of cells was generated containing cells that stained strongly, weakly or not at all with a Pdx1 antibody. Any cell that stained with the Pdx1 staining antibody was counted as Pdx1^+ cells regardless of staining intensity. Together, the Pdx1^+ cells comprises 5.1±1.8% of the total cell number.
# To carry out the screen, the cells were trypsinized and plated on 804G-coated 384-well plates at 6000 cells/well using chemically defined media (DMEM supplemented with 2 mM L-Glu, 1×PS, 1×B27). After overnight incubation, compounds were screened by adding them to provide a final concentration of 10 μM, 1 μM and 0.1 μM. Four days later, the cells were stained with Pdx1 antibody and the plates were analyzed with Opera high content screening system (PerkinElmer).
# The wells in which the percentage of Pdx1^+ cells is higher than present at day 1 and higher than day 5 treated with DMSO were selected as primary hits. Compounds that increase both the number and percentage of Pdx1^+ cells were picked as primary hits. Eleven compounds produced hits. (FIG. 7, Table I in FIG. 9 and formulas in FIG. 10). These eleven compounds were (−)-Indolactam V (FIG. 1c and Compound I in Table 1) boldine (Compound II), rotenone (Compound III), ethopropazine hydrochloride (Compound IV), cedrelone (Compound V), prieurianin (Compound VI), strophanthidin (Compound VII), trimeprazine tartrate (Compound VIII), terconazole (Compound IX), dimethisoquin hydrochloride (Compound X), harmine hydrochloride (Compound XI).
# (§1) Cells were fixed with 10% formalin solution (Sigma) for 20 min at room temperature. Immunostaining was carried out with standard protocols. The following primary antibodies were used: goat anti-Pdx1 (1:500; R&D system); rabbit anti-FOXA2 (1:500; Upstate); rabbit anti-HNF6 (1:200; Santa Cruz Biotech); guinea pig anti-insulin (1:1000; Dako); rabbit anti-c-peptide (1:500; Linco); rabbit anti-amylase (1:200, Sigma); goat anti-HNF1β (1:100, Santa Cruz Biotech); and biotinylated DBA (1:400; Vector Lab). Alexa-488-, Alexa-555, and Alexa-647-conjugated donkey antibodies against mouse, rabbit, guinea pig and goat, and Pacific Blue conjugate-streptavidin (Invitrogen) were used at 1:300 dilution.
# [3] = test system: HUES8-derived population; experiment: Illumina microarray of markers expressed in non-pancreatic tissues; format: cell-based, human; settings: 300 nM ILV, 4 days
# Protocol: cRNA samples were prepared with an Illumina TotalPrep RNA Amplification Kit (Ambion). Data was acquired with an Illumina beadstation 500 (Illumina) and analyzed with beadstudio (Illumina).
# (§2) To further characterize the cells induced by ILV, beyond Pdx1^+ expression, multiple pancreatic lineage markers were examined by immunocytochemistry and qRT-PCR. More than 96% of the Pdx1^+ cells following ILV treatment show significant expression of other pancreatic progenitor markers, including FOXA2 and HNF6 (FIG. 4a). After ILV treatment, Pdx1, HNF6, Ptfla, Sox9, FOXA2 mRNAs level increase (FIG. 4b).
# [4] = test system: HUES8-derived population; experiment: Pancreatic lineage markers in ILV-treated population (immunocytochemistry, qRT-PCR); format: cell-based, human
# Protocol: Total RNAs were extracted with the RNeasy Mini Kit (Qiagen) and reverse-transcribed using SuperScript III RT-PCR system (Invitrogen) according to the manufacturer's protocol. One microliter of cDNA sample was PCR amplified with QuantiFast SYBR Green PCR Kit (Qiagen) and analyzed with DNA engine Opticon2 (MJ Research).
# as §1, §2
substance,measurement,setting,value
(−)-Indolactam V [ILV],teratoma,[1]; after twelve weeks,no evidence for teratoma was detected
same,endocrine and exocrine markers in grafts,"[1]; cells treated 4 days, implanted in left kidney of CD1-nude mice, twelve weeks","contained cell clusters that expressed endocrine markers, including insulin and c-peptide, and an exocrine marker, amylase"
same,primary hits (increase both the number and percentage of Pdx1+ cells),"[2]; HUES9-derived cells, 10 μM, 1 μM and 0.1 μM, four days",hits
same,effective concentration,"[2]; HUES9-derived cells, primary screen",~1 µM
same,percentage of Pdx1+ cells,"[2]; HUES9-derived population, 1 μM ILV for 4 days (day 5)",10.9±0.9%
same,"markers expressed in non-pancreatic tissues or organs (Sox7, Cdx2, Ces2, FABP2, AFP, albumin, BARX1, Troponin T, Sox2)",[3],either decrease or do not significantly change
same,"Pdx1, HNF6, Ptfla, Sox9, FOXA2 mRNAs level","[4]; 300 nM ILV, 4 days, qRT-PCR",increase
same,"endocrine progenitor markers Nkx2.2, Ngn3 and Nkx6.1","[4]; 300 nM ILV, 4 days, qRT-PCR",upregulated
same,share of Pdx1+ cells with significant expression of FOXA2 and HNF6,"[4]; after ILV treatment, immunocytochemistry",More than 96%
